Reference: US9045501B2, “5-HT3 receptor modulators, methods of making, and use thereof” (Albany Molecular Research, Inc., priority 2009, dated 2015)
pKi: −log10 of the molar value.

These molecules were tested against human 5-HT3 receptor (Homo sapiens (Human), UniProt P46098) (assay: Radioligand binding assay (SPA format), affinity for the human 5-HT3 receptor). Conditions: not given.
Method: The relative affinity of the various compounds for the human 5-HT3 receptor was measured in a radioligand binding assay, using a scintillation proximity assay (SPA) format. Test compounds were dissolved to 10 mM in 100% DMSO, then serially diluted at 10× assay concentrations in 100% DMSO in 96-well polypropylene plates and further diluted to 4× assay concentrations with the assay buffer. Samples were incubated in 50 mM Tris-HCl, pH 7.5, 3 mM MgCl2, 1 mM EDTA and 10% DMSO with 10 nM [9-methyl-^3H]BRL-43694 (Perkin Elmer), 3 μg of human 5-HT3 receptor membranes (Perkin Elmer) and 0.5 mg/mL SPA beads (WGA PVT, Amersham Biosciences) in a final volume of 0.2 mL. Binding reactions were set up in wells of PicoPlates-96 (Perkin Elmer) by adding consecutively 50 μL of each competing compound or buffer, SPA beads, the radioligand and 5-HT3 receptor membranes. After an overnight incubation at room temperature on a Nutator mixer, plates were centrifuged for 15 min at 1,500 rpm, followed by incubation in the dark for 30 min. Radioactivity was counted in the TopCount microplate counter (Perkin Elmer) for 5 min. Total binding control contained compound dilution buffer only; nonspecific binding was determined in the presence of 30 μM MDL-72222. Specific binding was determined by subtracting nonspecific binding from total binding. All experiments were performed in duplicate using ten concentrations of competing ligand, with ondansetron included as a control in every run. IC50 values were determined from specific binding data using XLfit4.1 curve fitting software from IDBS Ltd. The inhibition constant (Ki) was calculated from the Cheng Prusoff equation: (Ki=IC50/(1+(L/KD)), where L=concentration of radioligand in the assay, and KD=affinity of the radioligand for the receptor.

Sequence of human 5-HT3 receptor (P46098 24-478): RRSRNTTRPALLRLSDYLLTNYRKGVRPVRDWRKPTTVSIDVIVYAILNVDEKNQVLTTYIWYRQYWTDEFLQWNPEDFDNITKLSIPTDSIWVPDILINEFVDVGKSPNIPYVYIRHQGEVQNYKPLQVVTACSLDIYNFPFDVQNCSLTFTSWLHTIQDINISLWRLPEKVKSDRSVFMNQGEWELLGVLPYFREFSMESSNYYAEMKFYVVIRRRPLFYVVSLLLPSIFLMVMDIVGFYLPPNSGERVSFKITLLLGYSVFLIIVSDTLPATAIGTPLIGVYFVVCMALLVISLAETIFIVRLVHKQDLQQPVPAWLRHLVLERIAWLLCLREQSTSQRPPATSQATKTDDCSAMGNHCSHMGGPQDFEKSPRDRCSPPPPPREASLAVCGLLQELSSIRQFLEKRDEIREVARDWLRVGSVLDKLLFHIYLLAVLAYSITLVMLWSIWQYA

Compound	pKi
COc1cc2c3c(cnn3CCN([C@@H]3CN4CCC3CC4)C2=O)c1 [Example 10, (S)-4-methoxy-7-(quinuclidin-3-yl)-8,9-dihydro-[1,4]diazepino[6,7,1-hi]indazol-6(7H)-one]	7.85
COc1ccc(Cn2cc3c4c(cccc42)C(=O)N(CC24CCN(CC2)CC4)CC3)cc1 [Example 27, 6-(4-methoxybenzyl)-2-(quinuclidin-4-ylmethyl)-2,3,4,6-tetrahydro-1H-azepino[5,4,3-cd]indol-1-one]	8.10

Same assay, conditions: 10 μM compound, radioligand binding; read-out: h5-HT3A % inhibition @ 10 μM

Compound	inhibition at 10 µM [%]
CC(C)c1nc2cccc3c2n1CCN([C@H]1CN2CCC1CC2)C3=O [Example 18, 2-isopropyl-6-((R)-quinuclidin-3-yl)-5,6-dihydroimidazo[4,5,1-jk][1,4]benzodiazepin-7(4H)-one]	51
CC(C)c1nc2cccc3c2n1CCN([C@@H]1CN2CCC1CC2)C3=O [Example 19, 2-isopropyl-6-((S)-quinuclidin-3-yl)-5,6-dihydroimidazo[4,5,1-jk][1,4]benzodiazepin-7(4H)-one]	74
O=C1c2cccc3nc(-c4ccccc4)n(c23)CCN1[C@H]1CN2CCC1CC2 [Example 20, 2-phenyl-6-((R)-quinuclidin-3-yl)-5,6-dihydroimidazo[4,5,1-jk][1,4]benzodiazepin-7(4H)-one]	23
O=C1c2cccc3nc(-c4ccc(F)cc4)n(c23)CCN1[C@@H]1CN2CCC1CC2 [Example 22, 2-(4-fluorophenyl)-6-((S)-quinuclidin-3-yl)-5,6-dihydroimidazo[4,5,1-jk][1,4]benzodiazepin-7(4H)-one]	69

Same assay, conditions: [9-methyl-3H]BRL-43694 10 nM, human 5-HT3 receptor membranes, Cheng Prusoff; read-out: h5-HT3A Ki

Compound	pKi
O=C1c2cccc3ccn(c23)CCN1[C@H]1CN2CCC1CC2 [Example 1, (R)-2-(quinuclidin-3-yl)-3,4-dihydro-[1,4]diazepino[6,7,1-hi]indol-1(2H)-one]	7.13
O=C1c2cccc3ccn(c23)CCN1[C@@H]1CN2CCC1CC2 [Example 2, (S)-2-(quinuclidin-3-yl)-3,4-dihydro-[1,4]diazepino[6,7,1-hi]indol-1(2H)-one]	8.40
Cc1cn2c3c(cccc13)C(=O)N([C@@H]1CN3CCC1CC3)CC2 [Example 3, (S)-7-methyl-2-(quinuclidin-3-yl)-3,4-dihydro-[1,4]diazepino[6,7,1-hi]indol-1(2H)-one]	8.30
Cc1cn2c3c(cc(Cl)cc13)C(=O)N([C@@H]1CN3CCC1CC3)CC2 [Example 4, (S)-9-chloro-7-methyl-2-(quinuclidin-3-yl)-3,4-dihydro-[1,4]diazepino[6,7,1-hi]indol-1(2H)-one]	9.70
O=C1c2cccc3ccn(c23)CCCN1[C@H]1CN2CCC1CC2 [Example 5, (R)-2-(quinuclidin-3-yl)-2,3,4,5-tetrahydro-1H-[1,5]diazocino[3,2,1-hi]indol-1-one]	6.38
O=C1c2cccc3ccn(c23)CCCN1[C@@H]1CN2CCC1CC2 [Example 6, (S)-2-(quinuclidin-3-yl)-2,3,4,5-tetrahydro-1H-[1,5]diazocino[3,2,1-hi]indol-1-one]	6.69
O=C1c2cc(Cl)cc3cnn(c23)CCN1[C@@H]1CN2CCC1CC2 [Example 8, (S)-4-chloro-7-(quinuclidin-3-yl)-8,9-dihydro-[1,4]diazepino[6,7,1-hi]indazol-6(7H)-one]	9.30
O=C1c2cc(F)cc3cnn(c23)CCN1[C@@H]1CN2CCC1CC2 [Example 9, (S)-4-fluoro-7-(quinuclidin-3-yl)-8,9-dihydro-[1,4]diazepino[6,7,1-hi]indazol-6(7H)-one]	8.22
Cc1cc2c3c(cnn3CCN([C@@H]3CN4CCC3CC4)C2=O)c1 [Example 11, (S)-4-methyl-7-(quinuclidin-3-yl)-8,9-dihydro-[1,4]diazepino[6,7,1-hi]indazol-6(7H)-one]	9.10
O=C1c2cc(O)cc3cnn(c23)CCN1[C@@H]1CN2CCC1CC2 [Example 12, (S)-4-hydroxy-7-(quinuclidin-3-yl)-8,9-dihydro-[1,4]diazepino[6,7,1-hi]indazol-6(7H)-one]	8.70
O=C1c2cccc3ncn(c23)CCN1[C@@H]1CN2CCC1CC2 [Example 13, 6-((S)-quinuclidin-3-yl)-5,6-dihydroimidazo[4,5,1-jk][1,4]benzodiazepin-7(4H)-one]	7.49
CCc1nc2cccc3c2n1CCN([C@@H]1CN2CCC1CC2)C3=O [Example 17, 2-ethyl-6-((S)-quinuclidin-3-yl)-5,6-dihydroimidazo[4,5,1-jk][1,4]benzodiazepin-7(4H)-one]	6.89
O=C1c2cccc3nc(-c4ccccc4)n(c23)CCN1[C@@H]1CN2CCC1CC2 [Example 21, 2-phenyl-6-((S)-quinuclidin-3-yl)-5,6-dihydroimidazo[4,5,1-jk][1,4]benzodiazepin-7(4H)-one]	6.39
O=C1c2cccc3nc(-c4ccccc4Cl)n(c23)CCN1[C@@H]1CN2CCC1CC2 [Example 23, 2-(2-chlorophenyl)-6-((S)-quinuclidin-3-yl)-5,6-dihydroimidazo[4,5,1-jk][1,4]benzodiazepin-7(4H)-one]	6.69
O=C1c2cccc3[nH]c(=O)n(c23)CCN1[C@@H]1CN2CCC1CC2 [Example 25, 6-((S)-quinuclidin-3-yl)-5,6-dihydroimidazo[4,5,1-jk][1,4]benzodiazepine-2,7(1H, 4H)-dione]	8.15
O=C1c2cccc3c2N(CCN1[C@@H]1CN2CCC1CC2)S(=O)(=O)N3 [Example 26, 6-((S)-quinuclidin-3-yl)-5,6-dihydro-1H-[1,2,5]thiadiazolo[4,3,2-jk][1,4]benzodiazepin-7(4H)-one 2,2-dioxide]	6.15
O=C1c2cccc3[nH]cc(c23)CCN1CC12CCN(CC1)CC2 [Example 28, 2-(quinuclidin-4-ylmethyl)-2,3,4,6-tetrahydro-1H-azepino[5,4,3-cd]indol-1-one]	7.52
O=C1c2cccc3cnn(c23)CCN1CC12CCN(CC1)CC2 [Example 32, 7-(quinuclidin-4-ylmethyl)-8,9-dihydro-[1,4]diazepino[6,7,1-hi]indazol-6(7H)-one]	7.14

Same assay, conditions: read-out: h5-HT3A % inhibition @ 10 μM

Compound	inhibition at 10 µM [%]
Cc1nc2cccc3c2n1CCN([C@H]1CN2CCC1CC2)C3=O [Example 14, 2-methyl-6-((R)-quinuclidin-3-yl)-5,6-dihydroimidazo[4,5,1-jk][1,4]benzodiazepin-7(4H)-one]	40
Cc1nc2cccc3c2n1CCN([C@@H]1CN2CCC1CC2)C3=O [Example 15, 2-methyl-6-((S)-quinuclidin-3-yl)-5,6-dihydroimidazo[4,5,1-jk][1,4]benzodiazepin-7(4H)-one]	80
CCc1nc2cccc3c2n1CCN([C@H]1CN2CCC1CC2)C3=O [Example 16, 2-ethyl-6-((R)-quinuclidin-3-yl)-5,6-dihydroimidazo[4,5,1-jk][1,4]benzodiazepin-7(4H)-one]	39
O=C1c2cccc3[nH]c(=O)n(c23)CCN1[C@H]1CN2CCC1CC2 [Example 24, 6-((R)-quinuclidin-3-yl)-5,6-dihydroimidazo[4,5,1-jk][1,4]benzodiazepine-2,7(1H, 4H)-dione]	75

Each molecule was assayed against h5-HT3A receptor (Homo sapiens (Human), UniProt P46098) (assay: Agonist activity at recombinant human 5-HT3A receptors, [Ca2+]i in HEK293 cells). Conditions: at 1 μM, normalized to the response of 5-HT (5-HT response = 100% at 3 μM); NR = no response.
Sequence of h5-HT3A receptor (P46098 24-478): as above
Assay type: cell-based
Method: Human embryonic kidney (HEK293) cells expressing the h5-HT3A receptor subunit were seeded directly into poly-D-lysine coated, black-walled, clear bottomed, 96 well plates with approximately 1×10^5 cells per well. After 48 hrs incubation in DMEM growth media (100 μL), cells were washed twice (each 200 μL) in Hank's balanced salt solution (Invitrogen) before incubation (1 hr) with Fluo-4 acetoxymethyl (AM) ester (100 μL, 2.5 μM; Molecular Probes). Cells were washed twice (each 200 μL) in Hank's balanced salt solution and incubated for a further 30 min in Hank's balanced salt solution (100 μL) prior to assay (25° C.). Alteration in [Ca^2+]i was measured (relative fluorescence units [RFU]) using a Flexstation (excitation 488 nm and emission 515 nm; frequency of recording 3 sec). After recording for at least 80 sec, vehicle (Hank's balanced salt solution) or drug was automatically administered to the well (50 μL). Baseline was calculated from the 5 data points immediately prior to the first drug administration and the maximum response was that achieved over the 240 sec following drug administration. In all experiments the muscarinic receptor agonist carbachol (1 mM) was added 240 sec after the test drug administration.

Compound	HEK293 h5-HT3A % agonist response [%]
O=C1c2cccc3ccn(c23)CCN1[C@@H]1CN2CCC1CC2 [Example 2, (S)-2-(quinuclidin-3-yl)-3,4-dihydro-[1,4]diazepino[6,7,1-hi]indol-1(2H)-one]	7
Cc1cn2c3c(cccc13)C(=O)N([C@@H]1CN3CCC1CC3)CC2 [Example 3, (S)-7-methyl-2-(quinuclidin-3-yl)-3,4-dihydro-[1,4]diazepino[6,7,1-hi]indol-1(2H)-one]	13
O=C1c2cccc3[nH]c(=O)n(c23)CCN1[C@@H]1CN2CCC1CC2 [Example 25, 6-((S)-quinuclidin-3-yl)-5,6-dihydroimidazo[4,5,1-jk][1,4]benzodiazepine-2,7(1H, 4H)-dione]	83
